Laboratory results from PMC12071365, “Discovery of Boronic Acids-Based β-Lactamase Inhibitors Through In Situ Click Chemistry” (International Journal of Molecular Sciences, 2025).

Experiments:
[1] = Stability in phosphate buffer by 1H NMR; type: physicochemical
From the text: Previously, even a low level of affinity was reported to be sufficient for the target-templated reaction. Therefore, to enable in situ click chemistry within the β-lactamase’s binding pocket, a series of bifunctional “warheads” displaying two defined features were designed. Firstly, the presence of the boronic acid moiety serves as an anchor to the SBLs catalytic serine. Secondly, the azido functionalisation guarantees the clickable building block for generation of bioactive triazoles within the target active site. Thus, one 2-azido-1-acylamino-ethaneboronic acid and three azidomethyl-phenylboronic acids were synthesised and characterised (Figure 3). […] Herein, the amide side chain from cephalothin is well known to interact with various β-lactamases through van der Waals and H-bonding interactions and can aid the process of recognition within the target. […] Other warheads inspired by previously developed acyclic boronic acids were not considered in this manuscript and will be explored in future works.

[2] = biological target: SHV-12 (Klebsiella pneumoniae, UniProt P0AD64, E235K/G234S/L31Q); test: % inhibition at fixed concentration; type: biochemical; conditions: SHV-12, class A; inhibitor 200 µM; substrate NCF
[3] = biological target: ADC-25 (Acinetobacter baumannii, UniProt A8QIF8); test: % inhibition at fixed concentration; type: biochemical
Protocol: (§1) Selection of an appropriate warhead-bearing reagent is crucial for achieving a successful in situ click chemistry. Thus, we assessed the inhibitory activity of the selected warheads against a pool of different β-lactamases to verify their binding specificity for the target. The affinity (inhibitory ability) of 2-4 against 12 representative β-lactamases from class A, B, C, and D was assessed as the percentage of inhibition at a fixed concentration of 200 µM (Table 1).
(§2) The β-lactamases used in the present study were from a Clinical Biochemistry Laboratory collection (Department of Biotechnological and Applied Clinical Sciences, University of L’Aquila, L’Aquila, Italy). […] The concentration of each enzyme was determined by a Bradford assay.
(§3) The plot v0/vi versus [I] yielded a straight line of slope KM/(KM + S) × Ki.
(§4) For the β-lactamases test at a fixed concentration previously reported in Table 1, the following conditions were applied (Table 3): […]

[4] = biological target: CMY-2 (Klebsiella pneumoniae, UniProt Q48434); test: % inhibition at fixed concentration; type: biochemical
Protocol: as §1, §2, §3, §4

[5] = biological target: T1, CTX-M-15 (Escherichia coli, UniProt Q9EXV5); test: % inhibition at fixed concentration; type: biochemical
T1 construct: made in house
T1 sequence (Q9EXV5 entry or part of it): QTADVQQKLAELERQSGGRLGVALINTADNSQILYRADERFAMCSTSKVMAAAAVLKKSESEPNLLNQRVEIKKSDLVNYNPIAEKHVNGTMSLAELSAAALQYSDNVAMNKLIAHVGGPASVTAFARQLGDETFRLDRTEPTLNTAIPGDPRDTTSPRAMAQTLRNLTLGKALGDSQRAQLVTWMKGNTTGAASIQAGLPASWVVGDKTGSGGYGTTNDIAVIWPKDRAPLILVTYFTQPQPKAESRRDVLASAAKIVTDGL
Protocol: as §1, §2, §3, §4

[6] = biological target: T2, IMP-1 (Serratia marcescens, UniProt P52699); test: % inhibition at fixed concentration; type: biochemical
T2 construct: made in house
Protocol: as §1, §2, §3, §4

[7] = biological target: T3, KPC-2 (Klebsiella pneumoniae, UniProt Q9F663); test: % inhibition at fixed concentration; type: biochemical
T3 construct: made in house
Protocol: as §1, §2, §3, §4

[8] = biological target: KPC-53 (Klebsiella pneumoniae, UniProt Q9F663, DUP166-167/H272Y); test: % inhibition at fixed concentration; type: biochemical
Protocol: as §1, §2, §3, §4

[9] = biological target: OXA-24 (Acinetobacter baumannii, UniProt Q8RLA6); test: % inhibition at fixed concentration; type: biochemical
Protocol: as §1, §2, §3, §4

[10] = biological target: OXA-48 (Klebsiella pneumoniae, UniProt Q6XEC0); test: % inhibition at fixed concentration; type: biochemical; conditions: OXA-48, class D; inhibitor 200 µM; substrate IMI
Protocol: as §1, §2, §3, §4

[11] = biological target: T4, VIM-1 (Pseudomonas aeruginosa, UniProt A0A0F7KYQ8); test: % inhibition at fixed concentration; type: biochemical
T4 construct: made in house
Protocol: as §1, §2, §3, §4

[12] = biological target: T5, AmpC (Escherichia coli, UniProt P00811); test: % inhibition at fixed concentration; type: biochemical; parameters: made in house
T5 sequence (P00811 20-377): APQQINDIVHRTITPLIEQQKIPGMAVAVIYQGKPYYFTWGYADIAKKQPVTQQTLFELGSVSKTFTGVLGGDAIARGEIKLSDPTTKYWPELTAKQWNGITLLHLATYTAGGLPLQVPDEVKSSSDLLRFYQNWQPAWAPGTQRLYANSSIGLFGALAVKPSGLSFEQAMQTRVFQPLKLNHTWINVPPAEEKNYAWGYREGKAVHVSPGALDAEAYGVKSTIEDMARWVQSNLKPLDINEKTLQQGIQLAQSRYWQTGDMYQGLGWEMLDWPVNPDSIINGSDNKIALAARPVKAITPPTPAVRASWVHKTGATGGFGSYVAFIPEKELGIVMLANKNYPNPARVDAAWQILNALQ
From the text: Selection of an appropriate warhead-bearing reagent is crucial for achieving a successful in situ click chemistry. Thus, we assessed the inhibitory activity of the selected warheads against a pool of different β-lactamases to verify their binding specificity for the target. […]
as §2, §3, §4

[13] = biological target: NDM-1 (Klebsiella pneumoniae, UniProt C7C422); test: % inhibition at fixed concentration; type: biochemical; parameters: made in house
Protocol: as §1, §2, §3, §4

[14] = biological target: T3, KPC-2; test: Competitive inhibition assay with nitrocefin, Ki; type: biochemical
Protocol: as §2, §3
AC = Amplification coefficient. In the AC column, between brackets reports the regioisomeric ratio observed (1,4- vs. 1,5-) and bold reports the synthesised regioisomer. Light blue indicates the compounds obtained from the KPC-2 screening.

[15] = biological target: T3, KPC-2; parameters: method as in PMID 35792385; conditions: ref [58]; cited from earlier work
[16] = biological target: T5, AmpC; test: Competitive inhibition assay with nitrocefin, Ki; type: biochemical; parameters: made in house; conditions: AmpC; values in nM
Protocol: as §2, §3
Figure 9 Compounds synthesised and their biological evaluation. AC = Amplification coefficient. […] Light blue indicates the compounds from the AmpC screening.

[17] = system: O=C(Cc1cccs1)N[C@@H]1C(=O)N2C(C(=O)O)=C(/C=C/c3ccc([N+](=O)[O-])cc3[N+](=O)[O-])CS[C@H]12; test: KM of reporter substrate (Hanes-Woolf); type: biochemical; conditions: pH 7.0
Protocol: The β-lactamases used in the present study were from a Clinical Biochemistry Laboratory collection (Department of Biotechnological and Applied Clinical Sciences, University of L’Aquila, L’Aquila, Italy). All enzymes show a purity degree of higher than 95%. The concentration of each enzyme was determined by a Bradford assay.

[18] = system: C[C@@H](O)[C@H]1C(=O)N2C(C(=O)O)=C(S[C@@H]3CN[C@H](C(=O)N(C)C)C3)[C@H](C)[C@H]12; test: purified protein, by the assay type

In the case of `[N-]=[N+]=NCC(NC(=O)Cc1cccs1)B(O)O` (stereo not drawn) [compound 1], the “stability in phosphate buffer” value [1] is reported as “partially degrades”.
With `[N-]=[N+]=NCc1ccccc1B(O)O` [compound 2] the “% of inhibition” value [2] was 14%, the inhibition at 200 µM [3] was 27% and the inhibition at 200 µM [4] was 19%. The inhibition at 200 µM [5] was 0%, the inhibition at 200 µM [6] was 12% and the inhibition at 100 µM [7] was 35%. For the same compound, the inhibition at 200 µM [8] was 54%, the inhibition at 200 µM [9] was 20% and the inhibition at 200 µM [10] was < 1%. For the same compound, the inhibition at 200 µM [11] was 23%, the inhibition at 100 µM [12] was 57% and the inhibition at 200 µM [13] was 23%.
With `[N-]=[N+]=NCc1cccc(B(O)O)c1` [compound 3, (3-(azidomethyl)phenyl)boronic acid] the “% of inhibition” value [2] was 38%, the inhibition at 200 µM [3] was 67% and the inhibition at 200 µM [4] was 79%. The inhibition at 200 µM [5] was 42%, the inhibition at 200 µM [6] was 11% and the inhibition at 100 µM [7] was 76%. It also gave an inhibition at 200 µM [8] of 65%, an inhibition at 200 µM [9] of 24% and an inhibition at 200 µM [10] of 2%. For the same compound, the inhibition at 200 µM [11] was 24%, the Ki [14] was 2300 nM and the “activity vs. KPC-2” value [15] was “sub-µM”. For the same compound, the inhibition at 100 µM [12] was 100%, the “% of inhibition” value ([12]; AmpC, class C, inhibitor 100 µM, substrate NCF) was “completely inhibits” and the inhibition at 200 µM [13] was 20%. It also gave a Ki [16] of 700 nM.
For `[N-]=[N+]=NCc1ccc(B(O)O)cc1` [compound 4, (4-(azidomethyl)phenyl)boronic acid], the “% of inhibition” value [2] was 48%, the inhibition at 200 µM [3] was 46% and the inhibition at 200 µM [4] was 67%. The inhibition at 200 µM [5] was 22%, the inhibition at 200 µM [6] was 22% and the inhibition at 100 µM [7] was 72%. The inhibition at 200 µM [8] was 55%, the inhibition at 200 µM [9] was 26% and the inhibition at 200 µM [10] was < 1%. For the same compound, the inhibition at 200 µM [11] was 33%, the “activity vs. KPC-2” value [15] was “sub-µM” and the inhibition at 100 µM [12] was 81%. It also gave an inhibition at 200 µM [13] of 24%.
ADC-25 (Acinetobacter baumannii) gave a Km [17] of 120 ± 3 µM µM.
Compound IMP-1 (Serratia marcescens) has a Km ([18]; other: IMP-1, HEPES 20 mM pH 7.0 + 20 µM Zn) of 30 ± 1 µM µM.
Work on VIM-1 (Pseudomonas aeruginosa PAO1) yielded a Km ([18]; other: VIM-1, HEPES 20 mM pH 7.0 + 20 µM Zn) of 130 ± 4 µM µM.
